From publication PMC5000642 (International Journal of Molecular Sciences, 2016)
Where a SMILES comes first, the peptide text is derived from it. [ ]: non-standard residue; d: D form.

Legend:
[1] = molecular target: T1, endothelin A receptor (ETAR) (Homo sapiens, UniProt P25101); assay: Calcium mobilization antagonist assay in HEK293/ETAR cells evoked by […] ET-1 (cell line validation); assay type: cell-based
T1 construct: gene EDNRA
T1 sequence (P25101 21-427): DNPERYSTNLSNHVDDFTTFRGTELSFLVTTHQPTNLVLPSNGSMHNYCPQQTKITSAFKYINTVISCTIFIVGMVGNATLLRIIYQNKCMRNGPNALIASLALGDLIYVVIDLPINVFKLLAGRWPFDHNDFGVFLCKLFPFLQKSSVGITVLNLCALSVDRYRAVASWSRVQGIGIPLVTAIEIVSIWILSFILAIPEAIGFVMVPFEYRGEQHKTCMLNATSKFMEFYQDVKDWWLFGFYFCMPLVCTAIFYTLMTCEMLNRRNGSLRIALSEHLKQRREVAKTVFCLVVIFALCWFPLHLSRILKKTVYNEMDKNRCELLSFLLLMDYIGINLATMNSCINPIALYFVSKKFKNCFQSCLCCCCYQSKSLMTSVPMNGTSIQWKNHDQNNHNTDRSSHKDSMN

[2] = molecular target: T2, proteinase-activated receptor 1 (PAR1) (Homo sapiens, UniProt P25116); assay: cell-based; design: species or system HEK293; calcium mobilization assay in HEK293 cells stably expressing the human GPCR, agonist response
T2 construct: gene F2R; stably expressed in HEK293
T2 sequence (P25116 1-425): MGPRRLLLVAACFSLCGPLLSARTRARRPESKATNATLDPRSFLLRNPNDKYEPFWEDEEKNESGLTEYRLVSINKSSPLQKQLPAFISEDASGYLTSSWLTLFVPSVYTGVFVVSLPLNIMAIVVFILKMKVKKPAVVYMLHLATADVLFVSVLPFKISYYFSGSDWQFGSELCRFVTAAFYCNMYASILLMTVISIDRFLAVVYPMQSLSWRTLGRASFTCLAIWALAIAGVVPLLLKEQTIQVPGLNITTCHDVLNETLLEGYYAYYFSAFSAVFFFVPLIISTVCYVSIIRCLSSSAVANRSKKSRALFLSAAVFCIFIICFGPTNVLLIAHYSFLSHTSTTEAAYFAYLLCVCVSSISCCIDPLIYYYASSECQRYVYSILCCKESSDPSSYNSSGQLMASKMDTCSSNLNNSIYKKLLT
Procedure: To acquire the antagonist dose response, we tested the inhibitory effects of Sal A at different concentrations in the HEK293/ETAR cell line with 20 nM ET-1 stimulating. […] To omit a potential false positive, the cytotoxicity was tested in the HEK293/ETAR cell line by ATP CellTiter-Glo assay. In brief, Sal A was incubated in HEK293/ETAR cells for 30 min before luminescence signal measurement. […] The selectivity of Sal A was further assessed by calcium influx assay on 5 GPCRs. […] All cell lines were developed by standard procedures. Sal A was tested at a final concentration of 10 µM when cells were challenged with their selective agonists for antagonist identification. The selective antagonists of specific cell lines were used as positive control (Table S1). The HEK293 cell line was set up as the naïve group, and cells were challenged with 10 µM ATP as an agonist. […] The Gαq pathway is involved in ETAR activation, which increases intracellular Ca^2+. Based on this characteristic, a cell-based calcium mobilization assay has been used to study the function of GPCR and Ca^2+-permeable ion channels by measuring the changes of intracellular free Ca^2+ levels. In our previous study, recombinant ETAR in HEK293 cells was developed according to standard procedures. The utility of the cell line was validated using ETAR agonist (ET-1) and antagonist (BQ-123). […]

[3] = molecular target: T1, endothelin A receptor (ETAR); assay: Calcium mobilization (Fluo-4) antagonist assay in HEK293/ETAR cells evoked by […] ET-1; selective over ETB, A1, AT1 and PAR1 cell lines; assay type: cell-based

CC(C)C[C@@H]1NC(=O)[C@@H](C(C)C)NC(=O)[C@@H]2CCCN2C(=O)[C@@H](CC(=O)O)NC(=O)[C@@H](Cc2c[nH]c3ccccc23)NC1=O [BQ-123] (cyclo(L[dW][dD]P[dV]))
IC50 [1]: 0.1 nM

CC(C)C[C@H](NC(=O)[C@H](CC(C)C)NC(=O)[C@H](Cc1ccccc1)NC(=O)[C@@H](N)CO)C(=O)N[C@@H](CCCN=C(N)N)C(=O)N[C@@H](CC(N)=O)C(=O)O [TRAP-6]
EC50 [2]: 890 nM

O=C(/C=C/c1ccc(O)c(O)c1/C=C/c1ccc(O)c(O)c1)O[C@H](Cc1ccc(O)c(O)c1)C(=O)O [Sal A, Salvianolic acid A]
IC50 [3]: 5700 nM
